According to patent US8673578B2, “Methods of identifying antagonists of the hTAS2R46 bitter taste receptor” (Deutsches Institut für Ernahrungsforschung Potsdam-Rehbrücke, priority 2009, dated 2014):

What was measured:
Assay in all cases: calcium imaging (FLIPR), effect on agonist-dependent hTAS2R activation
hTAS2R40 = biological target: T1, hTAS2R40 (Homo sapiens, UniProt P59535); type: cell-based; conditions: 100 μM test substance; agonist cohumulone 0.3 μM (EC90); agonist alone = 100%
T1 construct: expressed in transfected cells; host or cells: HEK293T cells stably expressing chimeric Gα16gust44, transient transfection
Description: (§1) Human TAS2R cDNAs were cloned into pcDNA5/FRT (Invitrogen, San Diego, Calif.). For adequate plasma membrane targeting, receptor cDNA was fused to the aminoterminal sequence of the rat somatostatin type 3 receptor at the aminoterminus of the recombinant protein (Bufe, B., T. Hofmann, et al. (2002) Nat Genet. 32(3): 397-401). For immunological detection, the Herpes simplex Glycoprotein D epitope was supplemented at the carboxyterminus of the recombinant protein (Bufe et al., supra). Receptor constructs were transiently transfected into HEK293T cells stably expressing the chimeric G protein subunit Gα16gust44 (Ueda, T., S. Ugawa, et al. (2003) J Neurosci 23(19): 7376-80) using Lipofectamine 2000 (Invitrogen, San Diego, Calif.) in 96-well plates.
(§2) Calcium Imaging experiments were performed 24 h after transfection using a Fluorometric Imaging Plate Reader (FLIPR, Molecular Devices, Munich, Germany) as previously described (Bufe et al., supra). Taste active compounds were ordered from Sigma (Sigma-Aldrich, Taufkirchen, Germany). Absinthin, 3β hydroxy dihydro costunolide and 3β hydroxy pelenolide were kindly provided by Giovanni Appendino (Novara, Italy). Test substances were directly dissolved in C1 buffer (130 mM NaCl, 10 mM Na-Hepes, 10 mM Glucose, 5 mM KCl, 2 mM CaCl2, pH 7.4) or in DMSO, respectively. DMSO stocks were further diluted in C1 buffer not exceeding a final DMSO concentration of 1% on the cells. For the investigation of antagonistic effects, test substances were premixed. Agonists were applied at concentrations corresponding to EC90, except where indicated otherwise (Table 2). Data were collected from 3 independent experiments performed in quadruplicates and processed with SigmaPlot (SPSS, Chicago, Ill.). Fluorescence signals after application of test substances were corrected for and normalized to background fluorescence (ΔF/F═(F−F0)/F0), and baseline noise was subtracted. Calculation of dose-response curves was done by nonlinear regression using the function f(y)=((a−d)/(1+(x/EC50)^nH)+d).
(§3) To test 3β hydroxy dihydro costunolide and 3β hydroxy pelenolide for antagonistic or enhancing effects on hTAS2R activation, transfected cells were stimulated with cognate agonist bitter substances at EC90 concentrations (Table 2) without 3β hydroxy dihydro costunolide and 3β hydroxy pelenolide. The cellular responses after application of the agonist alone were set to 100%, responses obtained after coapplication of agonists and 100 μM 3β hydroxy dihydro costunolide or 100 μM 3β hydroxy pelenolide are shown relative to this value (FIG. 4).

hTAS2R43 = biological target: T2, hTAS2R43 (Homo sapiens, UniProt P59537, H212R/W35S); type: cell-based; conditions: 100 μM test substance; agonist aristolochic acids 0.3 μM (EC90); agonist alone = 100%
T2 construct: expressed in transfected cells; host or cells: HEK293T cells stably expressing chimeric Gα16gust44, transient transfection
T2 sequence (P59537 1-309 W35S/H212R): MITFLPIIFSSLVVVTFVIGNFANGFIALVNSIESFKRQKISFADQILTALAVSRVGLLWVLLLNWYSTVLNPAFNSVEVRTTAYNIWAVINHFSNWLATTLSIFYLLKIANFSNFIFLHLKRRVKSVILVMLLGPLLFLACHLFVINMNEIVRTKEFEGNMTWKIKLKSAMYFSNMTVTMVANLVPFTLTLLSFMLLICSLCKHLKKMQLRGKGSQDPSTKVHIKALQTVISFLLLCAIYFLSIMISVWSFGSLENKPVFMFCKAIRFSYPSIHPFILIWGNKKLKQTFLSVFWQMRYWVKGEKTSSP
Description: as §1, §2, §3

hTAS2R47 = biological target: T3, hTAS2R47 (Homo sapiens, UniProt P59541); type: cell-based; conditions: 100 μM test substance; agonist brucine 100 μM (EC90); agonist alone = 100%
T3 construct: expressed in transfected cells; host or cells: HEK293T cells stably expressing chimeric Gα16gust44, transient transfection
T3 sequence (P59541 1-319): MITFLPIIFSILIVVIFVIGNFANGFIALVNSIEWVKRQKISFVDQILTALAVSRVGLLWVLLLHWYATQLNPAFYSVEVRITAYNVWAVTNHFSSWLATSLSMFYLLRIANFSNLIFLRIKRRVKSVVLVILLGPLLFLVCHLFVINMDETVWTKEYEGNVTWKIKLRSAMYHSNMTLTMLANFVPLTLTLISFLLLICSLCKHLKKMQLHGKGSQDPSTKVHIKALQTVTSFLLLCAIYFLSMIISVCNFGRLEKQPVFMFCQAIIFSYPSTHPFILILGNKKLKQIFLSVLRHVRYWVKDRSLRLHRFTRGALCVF
Description: as §1, §2, §3

hTAS2R46 = biological target: T4, hTAS2R46 (Homo sapiens, UniProt P59540); type: cell-based; conditions: for agonist-dependent response of hTAS2R46-expressing cells on coapplication: 100 μM test substance, agonist picrotoxinin 300 μM (EC90), agonist alone = 100%
T4 construct: expressed in transfected cells; host or cells: HEK293T cells stably expressing chimeric Gα16gust44, transient transfection
T4 sequence (P59540 1-309): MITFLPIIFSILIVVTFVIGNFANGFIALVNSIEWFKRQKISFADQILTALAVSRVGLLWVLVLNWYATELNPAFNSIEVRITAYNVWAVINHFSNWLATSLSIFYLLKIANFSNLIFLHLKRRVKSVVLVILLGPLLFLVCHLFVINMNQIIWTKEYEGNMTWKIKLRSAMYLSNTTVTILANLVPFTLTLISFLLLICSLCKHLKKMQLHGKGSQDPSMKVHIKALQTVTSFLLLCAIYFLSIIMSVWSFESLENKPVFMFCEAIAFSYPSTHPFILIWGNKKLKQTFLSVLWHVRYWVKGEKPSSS
Description: as §1, §2, §3
Next we determined concentrations of half-maximal inhibition of TAS2R46. FIG. 5 illustrates the concentration-inhibition curves of TAS2R46 activated by picrotoxinin in the presence of various concentrations of 3β hydroxy dihydro costunolide or 3β hydroxy pelenolide. […] In agreement with the data described above the costunolide analog appears to be more potently inhibiting TAS2R46 than the pelenolide analog. […] As expected 3β hydroxy pelenolide has to be employed at ˜6 fold higher concentrations than 3β hydroxy dihydro costunolide to achieve 50% receptor inhibition.
Next, we established concentration-response curves for strychnine at TAS2R46 in the presence of various concentrations of 3β hydroxy dihydro costunolide.
Finally, the impact of chemical modifications on the antagonistic properties of 3β hydroxy dihydro costunolide on hTAS2R46-expressing cells was studied. Derivatives of 3β hydroxy dihydro costunolide with site-directed modifications at C3 and C11 were generated (FIG. 7A) These derivatives were tested for activation or inhibition of hTAS2R46-expressing cells in the absence or presence of the agonist strychnine (3 μM) and half-maximum effective concentrations (EC50) or half-maximal inhibitory concentrations were calculated (FIG. 7B).

other hTAS2 receptors = type: cell-based, human; conditions: 100 μM test substance; cognate agonists of Table 2
Description: as §1
Calcium Imaging experiments were performed 24 h after transfection using a Fluorometric Imaging Plate Reader (FLIPR, Molecular Devices, Munich, Germany) as previously described (Bufe et al., supra). Taste active compounds were ordered from Sigma (Sigma-Aldrich, Taufkirchen, Germany). Absinthin, 3β hydroxy dihydro costunolide and 3β hydroxy pelenolide were kindly provided by Giovanni Appendino (Novara, Italy). […] Fluorescence signals after application of test substances were corrected for and normalized to background fluorescence (ΔF/F═(F−F0)/F0), and baseline noise was subtracted. […]

[1] = agonist denatonium benzoate 300 μM

T1 sequence (P59535 whole entry): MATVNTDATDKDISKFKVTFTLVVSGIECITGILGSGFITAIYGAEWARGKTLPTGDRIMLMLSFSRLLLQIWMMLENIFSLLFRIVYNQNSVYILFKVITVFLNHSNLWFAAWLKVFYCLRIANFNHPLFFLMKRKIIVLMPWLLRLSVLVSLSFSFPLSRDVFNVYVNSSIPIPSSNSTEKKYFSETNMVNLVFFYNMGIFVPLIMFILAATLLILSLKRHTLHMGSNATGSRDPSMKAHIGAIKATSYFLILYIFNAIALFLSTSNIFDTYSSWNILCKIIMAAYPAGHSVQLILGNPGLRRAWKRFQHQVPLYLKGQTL

## C/C1=C\C[C@H](O)/C(C)=C/[C@H]2OC(=O)[C@@H](C)C2CC1 (stereo partly drawn) [3β hydroxy dihydro costunolide]
hTAS2R40
  agonist-dependent response of hTAS2R40-expressing cells on coapplication: only moderately reduced
hTAS2R43
  agonist-dependent response of hTAS2R43-expressing cells on coapplication: only moderately reduced
hTAS2R47
  agonist-dependent response of hTAS2R47-expressing cells on coapplication: complete block
hTAS2R46; 0, 10, 30, 100 μM inhibitor
  strychnine response amplitude at TAS2R46 with increasing inhibitor concentrations: largely unaffected
hTAS2R46; 100 μM inhibitor, P<0.05, one-way ANOVA
  change of the strychnine EC50 value at hTAS2R46 on coapplication: significant increase
hTAS2R46
  agonist-dependent response of hTAS2R46-expressing cells on coapplication: complete block
hTAS2R46; agonist absinthin 100 μM
  IC50: 14.1 ± 1.35 µM
hTAS2R46; agonist andrographolide 30 μM
  IC50: 4.93 ± 0.54 µM
hTAS2R46; [1]
  IC50: 6.78 ± 2.33 µM
hTAS2R46; agonist picrotoxinin 300 μM
  IC50: 4.81 ± 1.43 µM
hTAS2R46; agonist strychnine 3 μM
  IC50: 15.3 ± 5.85 µM
hTAS2R46; presence of agonist strychnine 3 μM
  action on hTAS2R46-expressing cells (inhibition): antagonists
hTAS2R46; strychnine concentration-response curves with 0, 10, 30, 100 μM inhibitor
  mode of action of the inhibitor at TAS2R46: competitive
Other hTAS2 receptors
  agonist activation of cells expressing any of the other hTAS2Rs on coapplication: did not alter

## C/C1=C\C[C@H](O)[C@@H](C)C[C@H]2OC(=O)[C@@H](C)[C@@H]2CC1 [3β hydroxy pelenolide]
hTAS2R40
  agonist-dependent response of hTAS2R40-expressing cells on coapplication: moderately attenuating effect
hTAS2R43
  agonist-dependent response of hTAS2R43-expressing cells on coapplication: completely inhibited
hTAS2R47
  agonist-dependent response of hTAS2R47-expressing cells on coapplication: completely inhibited
hTAS2R46
  agonist-dependent response of hTAS2R46-expressing cells on coapplication: moderately attenuating effect
hTAS2R46; TAS2R46
  fold higher concentration than 3β hydroxy dihydro costunolide to achieve 50% receptor inhibition: ~6 fold
hTAS2R46; agonist absinthin 100 μM
  IC50: 57.8 ± 24.9 µM
hTAS2R46; agonist andrographolide 30 μM
  IC50: 44.5 ± 34.5 µM
hTAS2R46; [1]
  IC50: 51.4 ± 28.8 µM
hTAS2R46; agonist picrotoxinin 300 μM
  IC50: 22.9 ± 3.4 µM
hTAS2R46; agonist strychnine 3 μM
  IC50: 84.9 ± 50.2 µM
Other hTAS2 receptors
  agonist activation of cells expressing any of the other hTAS2Rs on coapplication: not affected
